Entries after “also recorded” stand apart in the source; their conditions may differ. Where two headings read alike, the source gives them in different places.
Tests used:
[1] = system: Escherichia coli ATCC35218; test: microbe, parasite or virus in culture; assay type: cell-based; details: ATCC35218, read-out: MIC Ec
Method: (§1) The minimum inhibitory concentration (MIC) of the synthesized compounds was initially determined against three microbial indicator strains (Escherichia coli ATCC35218, […] ATCC33592, Septoria tritici MUCL45408). […]
(§2) 2. Microbial and parasitological studies
(§3) The minimum inhibitory concentration (MIC) of the synthesized compounds was determined against three microbial indicator strains (E. coli ATCC35218, S. aureus ATCC33592 and S. tritici MUCL45408) as previously described.1,2 All samples were dissolved in DMSO and tested in triplicate. Briefly, a pre-culture of E. coli and S. aureus was prepared by incubating the strains in cation adjusted Mueller Hinton 2 broth (Becton Dickinson, Sparks, NV, USA) at 37°C and 180 rpm overnight. The cell density of adjusted to 5 × 10^5 cells/mL before assays were incubated at 37 °C, 180 rpm and 85% rH. Three distinct dilution series of standard antibiotics (gentamicin, rifampicin, […]
(§4) medium without test compound or positive control was used as negative control.
(§5) Medium background was averaged from 5 replicates. The turbidity of each well was […]

S. aureus ATCC33592 = test: microbe, parasite or virus in culture; assay type: cell-based; details: Staphylococcus aureus, ATCC33592, read-out: MIC Sa
Method: as §1, §2, §3, §4, §5

[2] = system: Septoria tritici MUCL45408; test: Minimum inhibitory concentration (MIC), S. tritici (ATP quantification); assay type: cell-based; details: Zymoseptoria tritici, read-out: MIC St
Method: as §1, §2
The minimum inhibitory concentration (MIC) of the synthesized compounds was determined against three microbial indicator strains (E. coli ATCC35218, S. aureus ATCC33592 and S. tritici MUCL45408) as previously described.1,2 All samples were dissolved in DMSO and tested in triplicate. Briefly, a pre-culture of E. coli and S. aureus was prepared by incubating the strains in cation adjusted Mueller Hinton 2 broth (Becton Dickinson, Sparks, NV, USA) at 37°C and 180 rpm overnight. The cell density of adjusted to 5 × 10^5 cells/mL before assays were incubated at 37 °C, 180 rpm and 85% rH. Three distinct dilution series of standard antibiotics (gentamicin, rifampicin, and tetracycline) were used as positive controls on each assay plate. Inoculated medium without test compound or positive control was used as negative control.
Medium background was averaged from 5 replicates. The turbidity of each well was measured with a microplate spectrophotometer at 600 nm (LUMIstar® Omega, BMG Labtech) and growth inhibition was calculated relative to the absorption of the controls. For S. tritici MUCL45408 inoculated at a density of 1 × 10^5 cells/mL in potato […]
dextrose medium. Septoria assay plates were incubated for 4 days at 25 °C, 180 rpm and 85% rH. Tebuconazole, amphotericin B, and nystatin were used as positive controls. Cell viability was evaluated via ATP quantification (BacTiter-Glo™, Promega GmbH, Walldorf, Germany) according to the manufacturer’s instructions. […]

C. elegans N2 = test: whole plant or invertebrate; assay type: cell-based, Caenorhabditis elegans; details: Caenorhabditis elegans, 48 h, read-out: MMIC N2
Text: (§6) The cuticle of C. elegans strain DC19 is known to be more permeable for small molecules compared to the wildtype N2.[30] DC19 is thereby considered an informative drug-sensitive test organism. In our assays, we determined the minimum mobility inhibitory concentration (MMIC) as a proxy for anthelmintic activity. […] In contrast, MMICs of some small molecule anthelmintics such as albendazole, mebendazole or PF-1022A were lower for DC19 (Fig. S1 ^†). […]
(§7) 2.2 In vitro tests against Caenorhabditis Elegans
(§8) The minimal motility inhibitory concentration (MMIC) of compounds 1-22 against C. elegans was determined as described before.3 Both strains, C. elegans N2 and DC19 were treated identically. Briefly, pre-cultures of C.elegans were kept on NGM agar plates infused with auxotrophic E.coli OP50 as food source.4 After 4 days the plates contained sufficient gravid worms, respectively. Worms were washed from the plates with M9 buffer using wide bore pipette tips. Egg preparation was carried out by treating the harvested worms with an alkaline hypochlorite solution (5 M NaOH + 5 % NaOCl 1:2) in polypropylene tubes. Larvae and adult […]
(§9) We carried out 3 washing steps (M9 buffer) to remove carry-over hypochlorite solution. Subsequently, the eggs were incubated overnight in NGM broth on a rotator to yield synchronized hatched L1/L2 larvae. The larvae solution was adjusted to 100 worms/mL and supplemented with cholesterol (5 µg/mL), carbenicillin (25 µg/mL) and E.coli OP50 (0.5%). This assay solution was distributed into 96 well plates and incubated with a dilution series of compounds 1-22 (64-0.5 µg/mL). An additional eight-point dilution series of ivermecin (40 – 0.3 ng/mL) was used as positive control on each assay plate. Solvent background was controlled by supplementation of pure DMSO without any compound. Assays were incubated for 2 days at room temperature. Finally, a cell imaging multimode reader (Cytation™ 5) was used to record short videos (1.5 seconds) of each individual test well. The videos were used to evaluate the worm motility.

Schistosoma mansoni = test: In vitro tests against Schistosoma mansoni (vitality parameters of adult worm pairs); assay type: cell-based; details: for activity against S. mansoni (100% effect strength in one parameter within 7 days = active): 10 or 20 μM
Method: Subsequently, we tested whether compounds with nematocidal activity display a broader activity also against parasitic flatworms. To this end, in vitro tests against the blood fluke S. mansoni were conducted (Fig. 4). The worms were incubated in presence of 10 and 20 μM of compounds 1–22 and phenotypic vitality parameters (separation of worm pairs, detachment of suckers from the bottom of the well and weakening of body movements) were assessed as previously described.[31] Compounds reaching 100% effect strength in one of the parameters within 7 days were considered active. Reduction of motility is considered most relevant for antischistosomal drug candidates.[32] In addition, loss of sucker activity would make parasites drifting off from their host habitat (mesenteric veins) and with pair separation, the production of pathology-causing eggs eventually ceases.[33] […] For some molecular targets e.g. glutamate and GABA chloride channels (ivermecin, abamectin) and β-tubulin (albendazole, mebendazole) the C. elegans assays results were transferable to Schistosoma, while for others e.g. acetylcholin mimetic (levamisole) the C. elegans MMIC was not predicative (Fig. S1 ^†).
2.2 Parasitological studies
Animal experiments were performed in accordance with Directive 2010/63/EU on the protection of animals used for scientific purposes and the German Animal Welfare Act. The experiments were approved by the Regional Council (Regierungspraesidium) Giessen (V54 – […]
A Liberian strain of S. mansoni was maintained in the freshwater snail Biomphalaria glabrata as intermediate host and Syrian hamsters (Mesocricetus auratus) as final host (Janvier Labs, France).5,6 Hamsters were infected at 8 weeks of age with 1,750 cercariae by using the paddling method.7 Adult worms were collected at 46 days p.i. by hepatoportal perfusion and cultured in M199 medium (Sigma-Aldrich, Germany) supplemented with 10% Newborn Calf Serum (NCS, Sigma-Aldrich), 1% 1 M HEPES (ThermoFisher Scientific, USA) and 1% ABAM solution (10,000 units/ml penicillin, 10 mg/ml streptomycin and […] amphotericin B; Sigma-Aldrich, Germany) at 37 °C, 5% CO2 and humidified atmosphere.
2.2.3. In vitro tests against Schistosoma mansoni
Test compounds were added at 10 µM or 20 µM in supplemented M199 medium to schistosomes (5 worm pairs per replicate) followed by a 7 d in vitro culture. Worms receiving the solvent DMSO at equal dilution served as negative control. The following vitality parameters were assessed every 24 h by bright field microscopy using a Leica DM IL inverted microscope and x2.5 objective lens: separation of worm pairs into male and female worms; detachment of suckers from the bottom; and weakening of body movements. Worm motility was scored as described previously, 8 with the scores 3 (normal motility), 2 (reduced motility), 1 (minimal and sporadic movements), 0 (no movements within 20 sec; dead worms). An average score of all worms per well was calculated to obtain a motility score. An average motility score of 0, separation of all pairs or detachment of all worms per well was considered

[3] = system: C. elegans strains N2 and DC19; test: MMIC against C. elegans, strains N2 and DC19 reported together or strain not stated; assay type: cell-based; details: Caenorhabditis elegans, 48 h, C. elegans, read-out: MMIC N2 and DC19
Text: as §6, §7, §8, §9

MDCK II cells = test: In vitro cytotoxicity, CellTiter-Glo, MDCK II cells; details: 100 μM; for MDCKII cytotoxicity: 48 h, cell viability less than 80% relative to DMSO control = cytotoxic
C. elegans DC19 = test: whole plant or invertebrate; assay type: cell-based, Caenorhabditis elegans; details: Caenorhabditis elegans, 48 h, read-out: MMIC DC19
Text: as §6, §7, §8, §9

in vitro = details: dog
[4] = 96 h, S. tritici MUCL45408, 4 days

| SMILES | MIC [1] | MIC (S. aureus ATCC33592) | MIC ([2]; MUCL45408, 96 h) | minimal effective concentration (C. elegans N2) | lethal effects (Schistosoma mansoni; 20 μM, after seven days) | sucker detachment (Schistosoma mansoni; 20 μM, after three days) | activity against S. mansoni (100% effect strength in one parameter within 7 days = active) (Schistosoma mansoni) | minimal effective concentration [3] | cytotoxicity against MDCK II (in words) (MDCK II cells) | MDCKII cytotoxicity (MDCK II cells) | MIC [2, 4] | minimal effective concentration (C. elegans DC19; C. elegans DC19, 2 days) | minimal effective concentration (C. elegans N2; C. elegans N2, 2 days) | phenotypic changes / vitality parameters of Schistosoma (Schistosoma mansoni; up to 20 μM, in comparison to the untreated control) | minimal effective concentration (C. elegans DC19) | detachment of suckers and pair separation (Schistosoma mansoni; 20 μM, after 7 days incubation) | Effect on S. mansoni (Schistosoma mansoni; 10 and 20 μM, up to 7 days, Det: detachment of suckers, Mot: motility reduction, Sep: pair separation) | CC50 (in vitro) | sucker detachment of Schistosoma worm pairs (Schistosoma mansoni; 10 μM) | motility score (Schistosoma mansoni; score 3 normal motility to 0 dead, paragraph on 20 μM) |
| --- | --- | --- | --- | --- | --- | --- | --- | --- | --- | --- | --- | --- | --- | --- | --- | --- | --- | --- | --- | --- |
| CN(C)c1cc(CN2CC(Cl)CC(C)(C)C2)cc(CN2CC(Cl)CC(C)(C)C2)c1 (stereo not drawn) [Compound 3] | > 64 µg/mL | > 64 µg/mL | > 64 µg/mL | 16 µg/mL | lethal effects | sucker detachment already after three days | showed an effect on S. mansoni | < 20 µg/mL | cytotoxic | + (“+” (toxic)) |  |  |  |  |  |  |  |  |  |  |
| Cc1cc(CN2CC(Cl)CC(C)(C)C2)cc(CN2CC(Cl)CC(C)(C)C2)c1 (stereo not drawn) [Compound 7] | > 64 µg/mL | > 64 µg/mL |  |  |  |  | showed an effect on S. mansoni | < 20 µg/mL |  |  | > 64 µg/mL | 16 µg/mL |  |  |  |  |  |  |  |  |
| CC1(C)CC(Cl)CN(Cc2ccccc2CN2CC(Cl)CC(C)(C)C2)C1 (stereo not drawn) [Compound 8] | > 64 µg/mL | > 64 µg/mL |  |  |  |  |  | < 20 µg/mL |  |  |  |  | 8 µg/mL | did not inflict any phenotypic changes |  |  |  |  |  |  |
| CC1(C)CC(Cl)CN([C@H]2CC[C@H](N3CC(Cl)CC(C)(C)C3)CC2)C1 (stereo partly drawn) [Compound 10] | > 64 µg/mL | > 64 µg/mL |  |  |  |  |  | ≥ 64 µg/mL |  |  | > 64 µg/mL | > 64 µg/mL | > 64 µg/mL |  |  |  |  |  |  |  |
| COC(=O)[C@H](CCCCN1CC(Cl)CC(C)(C)C1)N1CC(Cl)CC(C)(C)C1 (stereo partly drawn) [Compound 11] | > 64 µg/mL | > 64 µg/mL | > 64 µg/mL | > 64 µg/mL |  |  | Schistosoma-specific; also recorded: active at 20 μM |  |  | − (“−” (not toxic)) |  |  |  |  | > 64 µg/mL | detachment of suckers and pair separation | Det, Sep | 123 µM |  |  |
| CC1(C)CC(Cl)CN(CCCC[C@@H](C(=O)OCCc2ccccc2)N2CC(Cl)CC(C)(C)C2)C1 (stereo partly drawn) [Compound 12] | > 64 µg/mL | > 64 µg/mL |  |  |  |  | showed an effect on S. mansoni | < 20 µg/mL |  |  | > 64 µg/mL | 16 µg/mL |  |  |  |  |  |  | full sucker detachment | 1–1.2 |

Reference: article PMC11718441, “Bis-3-chloropiperidines: a novel motif for anthelmintic drug design” (RSC Advances, 2025)
